Measured values as given in ChEMBL document CHEMBL3784954, “In vitro and in silico PTP-1B inhibition and in vivo antidiabetic activity of semisynthetic moronic acid derivatives” (Bioorg Med Chem Lett, 2016).
Calls of active or inactive are those of the source. No cut-off for these calls is given here.

What was measured:
[1] = target: T1, Tyrosine-protein phosphatase non-receptor type 1 (Homo sapiens) (UniProt P18031); experiment: Inhibition of recombinant human PTP-1B expressed in Escherichia coli TB1 at 50 uM using p-nitrophenyl phosphate as substrate
T1 sequence (whole entry): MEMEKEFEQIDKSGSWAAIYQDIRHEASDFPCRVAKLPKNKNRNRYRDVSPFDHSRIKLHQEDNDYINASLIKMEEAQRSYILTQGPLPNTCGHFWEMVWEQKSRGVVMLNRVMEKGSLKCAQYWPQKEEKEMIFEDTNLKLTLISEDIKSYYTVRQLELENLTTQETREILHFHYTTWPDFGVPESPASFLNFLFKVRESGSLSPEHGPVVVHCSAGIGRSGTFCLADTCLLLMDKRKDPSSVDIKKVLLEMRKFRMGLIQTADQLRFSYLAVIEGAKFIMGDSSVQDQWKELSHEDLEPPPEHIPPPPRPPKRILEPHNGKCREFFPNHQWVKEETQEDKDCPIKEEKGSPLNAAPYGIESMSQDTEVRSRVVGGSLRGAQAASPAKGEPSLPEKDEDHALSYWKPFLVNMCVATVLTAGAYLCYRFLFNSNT

[2] = Solubility of compound in DMSO; type: physicochemical
[3] = target: T2, Low molecular weight phosphotyrosine protein phosphatase (Homo sapiens, UniProt P24666); experiment: Inhibition of recombinant human LMW-PTP isoform 2 expressed in Escherichia coli TB1
T2 sequence (P24666 whole entry): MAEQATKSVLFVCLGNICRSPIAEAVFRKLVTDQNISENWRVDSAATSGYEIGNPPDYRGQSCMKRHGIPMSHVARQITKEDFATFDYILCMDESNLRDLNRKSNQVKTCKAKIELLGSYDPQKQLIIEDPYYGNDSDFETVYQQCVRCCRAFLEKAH

Homo sapiens [4] = species on record: Homo sapiens; experiment: Selectivity ratio of IC50 for recombinant human LMW-PTP isoform 2 expressed in Escherichia coli TB1 to IC50 for recombinant human PTP-1B expressed in Escherichia coli TB1
[5] = target: T3, Tyrosine-protein phosphatase non-receptor type 1 (Homo sapiens, UniProt P18031); experiment: Inhibition of recombinant human PTP-1B expressed in Escherichia coli TB1 using p-nitrophenyl phosphate as substrate
T3 sequence (P18031 whole entry): T1 sequence (whole entry)

Homo sapiens [6] = species on record: Homo sapiens; experiment: Selectivity ratio of IC50 for recombinant human LMW-PTP isoform 1expressed in Escherichia coli TB1 to IC50 for recombinant human PTP-1B expressed in Escherichia coli TB1
[7] = target: T4, Tyrosine-protein phosphatase non-receptor type 2 (Homo sapiens, UniProt P17706); experiment: Inhibition of recombinant human TC-PTP expressed in Escherichia coli TB1
T4 sequence (P17706 whole entry): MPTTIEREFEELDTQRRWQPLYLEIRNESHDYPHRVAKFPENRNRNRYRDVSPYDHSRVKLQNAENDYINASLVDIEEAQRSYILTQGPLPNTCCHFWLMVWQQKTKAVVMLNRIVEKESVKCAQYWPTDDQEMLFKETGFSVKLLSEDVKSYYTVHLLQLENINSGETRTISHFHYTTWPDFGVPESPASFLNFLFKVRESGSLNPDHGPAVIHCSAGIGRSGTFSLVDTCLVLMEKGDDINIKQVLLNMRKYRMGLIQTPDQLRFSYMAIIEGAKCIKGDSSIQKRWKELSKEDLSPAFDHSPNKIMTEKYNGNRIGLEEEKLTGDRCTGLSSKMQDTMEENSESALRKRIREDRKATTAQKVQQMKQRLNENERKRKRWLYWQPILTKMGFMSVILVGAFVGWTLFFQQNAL

[8] = target: T2, Low molecular weight phosphotyrosine protein phosphatase; experiment: Inhibition of recombinant human LMW-PTP isoform 1 expressed in Escherichia coli TB1
[9] = target: T1, Tyrosine-protein phosphatase non-receptor type 1 (Homo sapiens); experiment: Partial reversible inhibition of recombinant human PTP-1B expressed in Escherichia coli TB1 at 10 times IC50 using p-nitrophenyl phosphate as substrate preincubated for 90 mins followed by 400 fold dilution
[10] = target: T3, Tyrosine-protein phosphatase non-receptor type 1; experiment: Competitive inhibition of recombinant human PTP-1B expressed in Escherichia coli TB1 using p-nitrophenyl phosphate as substrate by Lineweaver-Burk plot analysis
Rattus norvegicus [11] = experiment: Antidiabetic activity in non insulin dependent streptozotocin/nicotinamide-induced diabetic Wistar rat model assessed as decrease in blood glucose levels at 50 mg/kg, ig administered as single dose measured after 3 hrs by glucometer; type: functional, organism-based
Rattus norvegicus [12] = experiment: Antidiabetic activity in non insulin dependent streptozotocin/nicotinamide-induced diabetic Wistar rat model assessed as decrease in blood glucose levels at 50 mg/kg, ig administered as single dose measured after 7 hrs by glucometer; type: functional; set-up: scale not given: the % may be the effect or the level left
[13] = target: T1, Tyrosine-protein phosphatase non-receptor type 1 (Homo sapiens); experiment: Reversible inhibition of recombinant human PTP-1B expressed in Escherichia coli TB1 at 10 times IC50 using p-nitrophenyl phosphate as substrate preincubated for 90 mins followed by 400 fold dilution

inhibition [1] | IC50 [3] | IC50 [5] | IC50 [7] | IC50 [8] | Compound | other results
100% | 29.3 µM | 7.5 µM | > 100 µM | 16.1 µM | CC1(C)C=C2[C@H]3CC[C@@H]4[C@@]5(C)CCC6(OCCO6)C(C)(C)[C@@H]5CC[C@@]4(C)[C@]3(C)CC[C@@]2(CO)CC1 | solubility [2]: soluble; Ratio IC50 (Homo sapiens [4]): 4; Ratio IC50 (Homo sapiens [6]): 2; inhibition [9]: Active
Active | – | – | – | – | CCOC(=O)[C@]12CCC(C)(C)C=C1[C@H]1CC[C@@H]3[C@@]4(C)CCC(=O)C(C)(C)[C@@H]4CC[C@@]3(C)[C@]1(C)CC2 | –
Active | – | – | – | – | CC1(C)CC[C@]2(O)CC[C@]3(C)[C@H](CC[C@@H]4[C@@]5(C)CCC(=O)OC(C)(C)[C@@H]5CC[C@]43C)C23OC13 (stereo partly specified) | –
100% | 62.5 µM | 10.8 µM | > 100 µM | 33.7 µM | COC(=O)[C@]12CCC(C)(C)C=C1[C@H]1CC[C@@H]3[C@@]4(C)CCC(=O)C(C)(C)[C@@H]4CC[C@@]3(C)[C@]1(C)CC2 | Ki [10]: 3.1 µM; Activity (Rattus norvegicus [11]): Active; Activity (Rattus norvegicus [12]): 40%; inhibition [13]: Active
Active | – | – | – | – | CC1(C)C=C2[C@H]3CC[C@@H]4[C@@]5(C)CCC(=O)C(C)(C)[C@@H]5CC[C@@]4(C)[C@]3(C)CC[C@@]2(C(=O)NC2CCCCC2)CC1 | –
